Test results published in patent US20230295182A1, “SPIRO DERIVATIVES OF ALPHA-D-GALACTOPYRANOSIDES” (Idorsia Pharmaceuticals Ltd, priority 2020, published 2023).
Where two headings read alike, the source gives them in different places.

Tests used:
human Gal-1 (hGal-1) = human Gal-1 (hGal-1) (Homo sapiens, UniProt P09382); assay: Competitive binding assay: biotinylated hGal-1 to microplate-adsorbed asialofetuin (ASF)
Experimental: Evaluation of Compound Inhibitory Activity (IC50) The inhibitory activity of compounds is determined in competitive binding assays. […] Alternatively, and preferably, a human Gal-1 version in which all six cysteines are substituted by serines may be used. Briefly, compounds are serially diluted in DMSO (working dilutions). […] Plates are incubated for 3 hours at 4° C., then washed with cold assay buffer (3×50 uL), incubated for 1 hour with 25 μL/well of a streptavidin-peroxidase solution (diluted in assay buffer to 80 ng/mL) at 4° C., followed by further washing steps with assay buffer (3×50 uL). Finally, 25 µL/well of ABTS substrate is added. […] The calculated IC50 values may fluctuate depending on the daily assay performance. Fluctuations of this kind are known to those skilled in the art. IC50 values from several measurements are given as mean values.

human Gal-3 (hGal-3) = human Gal-3 (hGal-3) (Homo sapiens (Human), UniProt P17931); assay: Competitive binding assay: biotinylated hGal-3 to microplate-adsorbed asialofetuin (ASF); conditions: Activity on hGal-3; binding to ASF-coated plates, 3 hours at 4° C.; mean values
Experimental: Evaluation of Compound Inhibitory Activity (IC50)
The inhibitory activity of compounds is determined in competitive binding assays. This spectrophotometric assay measures the binding of biotinylated human Gal-3 (hGal-3) or human Gal-1 (hGal-1), respectively, to a microplate-adsorbed glycoprotein, asialofetuin (ASF) (Proc Natl Acad Sci USA. 2013 Mar. 26; 110(13):5052-7.). Alternatively, and preferably, a human Gal-1 version in which all six cysteines are substituted by serines may be used.
Briefly, compounds are serially diluted in DMSO (working dilutions). ASF-coated 384 well plates are supplemented with 22.8 μL/well of biotinylated hGal-3 or hGal-1 in assay buffer (i.e. 300-1000 ng/mL biotinylated hGal-3 or hGal-1) to which 1.2 µL of compound working dilutions are added and mixed.
Plates are incubated for 3 hours at 4° C., then washed with cold assay buffer (3×50 uL), incubated for 1 hour with 25 μL/well of a streptavidin-peroxidase solution (diluted in assay buffer to 80 ng/mL) at 4° C., followed by further washing steps with assay buffer (3×50 uL). Finally, 25 µL/well of ABTS substrate is added.
The calculated IC50 values may fluctuate depending on the daily assay performance. Fluctuations of this kind are known to those skilled in the art. IC50 values from several measurements are given as mean values.

[1] = Activities on hGal-1; binding to ASF-coated plates, 3 hours at 4° C.; mean values; read-out: Gal-1 IC50

human Gal-3 (hGal-3), sequence (P17931 whole entry): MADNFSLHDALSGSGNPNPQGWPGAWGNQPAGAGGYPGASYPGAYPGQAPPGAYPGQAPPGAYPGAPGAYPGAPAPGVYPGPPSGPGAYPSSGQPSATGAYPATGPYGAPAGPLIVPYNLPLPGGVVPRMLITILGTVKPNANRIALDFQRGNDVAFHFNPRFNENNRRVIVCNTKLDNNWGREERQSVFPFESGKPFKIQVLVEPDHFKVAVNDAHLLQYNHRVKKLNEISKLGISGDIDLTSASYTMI
human Gal-1 (hGal-1), sequence (P09382 2-135 limits assumed): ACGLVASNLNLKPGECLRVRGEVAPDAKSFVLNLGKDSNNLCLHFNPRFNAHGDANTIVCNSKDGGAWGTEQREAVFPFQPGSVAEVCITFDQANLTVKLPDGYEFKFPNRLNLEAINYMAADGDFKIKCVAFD

SMILES	IC50 (human Gal-1 (hGal-1); [1])	IC50 (human Gal-3 (hGal-3))	IC50 (human Gal-1 (hGal-1); read-out: Gal-1 IC50; Activities on hGal-1; binding to ASF-coated plates, 3 hours at 4° C.; mean values)
CO[C@@H]1[C@@H](n2cc(-c3ccc(C)c(F)c3F)nn2)[C@@H](O)[C@@H](CO)O[C@@H]1CC1=NO[C@]2(CC[C@@H](NC(=O)OC(C)(C)C)CC2)C1 [Example 1.44, tert-butyl ((5s,8S)-3-(((2R,3R,4S,5R,6R)-4-(4-(2,3-difluoro-4-methylphenyl)-1H-1,2,3-triazol-1-yl)-5-hydroxy-6-(hydroxymethyl)-3-methoxytetrahydro-2H-pyran-2-yl)methyl)-1-oxa-2-azaspiro[4.5]dec-2-en-8-yl)carbamate]	4.9 µM	0.1 µM	–
CO[C@@H]1[C@@H](n2cc(-c3ccc(F)c(F)c3F)nn2)[C@@H](O)[C@@H](CO)O[C@@H]1CC1=NOC2(CCCCC2)C1 [Example 1.13, (2R,3R,4S,5R,6R)-6-((1-oxa-2-azaspiro[4.5]dec-2-en-3-yl)methyl)-2-(hydroxymethyl)-5-methoxy-4-(4-(2,3,4-trifluorophenyl)-1H-1,2,3-triazol-1-yl)tetrahydro-2H-pyran-3-ol]	0.52 µM	0.14 µM	–
CO[C@@H]1[C@@H](n2cc(-c3cc(F)c(F)c(F)c3)nn2)[C@@H](O)[C@@H](CO)O[C@@H]1CC1=NOC2(CCC(C)(C)CC2)C1 [Example 1.29, (2R,3R,4S,5R,6R)-6-((8,8-dimethyl-1-oxa-2-azaspiro[4.5]dec-2-en-3-yl)methyl)-2-(hydroxymethyl)-5-methoxy-4-(4-(3,4,5-trifluorophenyl)-1H-1,2,3-triazol-1-yl)tetrahydro-2H-pyran-3-ol]	2.2 µM	0.44 µM	–
CO[C@@H]1[C@@H](n2cc(-c3cc(F)c(Cl)c(F)c3)nn2)[C@@H](O)[C@@H](CO)O[C@@H]1CC1=NOC2(CCCCC2)C1 [Example 1.18, (2R,3R,4S,5R,6R)-6-((1-oxa-2-azaspiro[4.5]dec-2-en-3-yl)methyl)-4-(4-(4-chloro-3,5-difluorophenyl)-1H-1,2,3-triazol-1-yl)-2-(hydroxymethyl)-5-methoxytetrahydro-2H-pyran-3-ol]	10.3 µM	0.18 µM	–
CO[C@@H]1[C@@H](n2cc(-c3ccc(F)c(F)c3F)nn2)[C@@H](O)[C@@H](CO)O[C@@H]1CC1=NOC2(CCOCC2)C1 [Example 1.35, (2R,3R,4S,5R,6R)-6-((1,8-dioxa-2-azaspiro[4.5]dec-2-en-3-yl)methyl)-2-(hydroxymethyl)-5-methoxy-4-(4-(2,3,4-trifluorophenyl)-1H-1,2,3-triazol-1-yl)tetrahydro-2H-pyran-3-ol]	1.4 µM	0.11 µM	–
CO[C@@H]1[C@@H](n2cc(-c3ccc(Cl)c(F)c3F)nn2)[C@@H](O)[C@@H](CO)O[C@@H]1CC1=NO[C@]2(CC[C@H](NC(=O)OC(C)(C)C)CC2)C1 [Example 1.45, tert-butyl ((5r,8R)-3-(((2R,3R,4S,5R,6R)-4-(4-(4-chloro-2,3-difluorophenyl)-1H-1,2,3-triazol-1-yl)-5-hydroxy-6-(hydroxymethyl)-3-methoxytetrahydro-2H-pyran-2-yl)methyl)-1-oxa-2-azaspiro[4.5]dec-2-en-8-yl)carbamate]	0.8 µM	0.01 µM	–
CO[C@@H]1[C@@H](n2cc(-c3ccc(F)c(F)c3F)nn2)[C@@H](O)[C@@H](CO)O[C@@H]1CC1=NO[C@]2(CC[C@@H](C#N)CC2)C1 [Example 1.58, (5s,8S)-3-(((2R,3R,4S,5R,6R)-5-hydroxy-6-(hydroxymethyl)-3-methoxy-4-(4-(2,3,4-trifluorophenyl)-1H-1,2,3-triazol-1-yl)tetrahydro-2H-pyran-2-yl)methyl)-1-oxa-2-azaspiro[4.5]dec-2-ene-8-carbonitrile]	0.64 µM	0.11 µM	–
CO[C@@H]1[C@@H](n2cc(-c3ccc(C)c(F)c3F)nn2)[C@@H](O)[C@@H](CO)O[C@@H]1CC1=NO[C@]2(CC[C@H](NC(=O)OC(C)(C)C)CC2)C1 [Example 1.43, tert-butyl ((5r,8R)-3-(((2R,3R,4S,5R,6R)-4-(4-(2,3-difluoro-4-methylphenyl)-1H-1,2,3-triazol-1-yl)-5-hydroxy-6-(hydroxymethyl)-3-methoxytetrahydro-2H-pyran-2-yl)methyl)-1-oxa-2-azaspiro[4.5]dec-2-en-8-yl)carbamate]	1.24 µM	0.015 µM	–
OC[C@H]1O[C@H](CC2=NOC3(CCCCC3)C2)[C@H](O)[C@@H](n2cc(-c3cc(F)c(F)c(F)c3)nn2)[C@H]1O [Example 1.05, (2R,3R,4R,5R,6R)-2-((1-oxa-2-azaspiro[4.5]dec-2-en-3-yl)methyl)-6-(hydroxymethyl)-4-(4-(3,4,5-trifluorophenyl)-1H-1,2,3-triazol-1-yl)tetrahydro-2H-pyran-3,5-diol]	–	0.28 µM	2.2 µM
CO[C@@H]1[C@@H](n2cc(-c3cc(F)cc(Cl)c3)nn2)[C@@H](O)[C@@H](CO)O[C@@H]1CC1=NOC2(CCCCC2)C1 [Example 1.19, (2R,3R,4S,5R,6R)-6-((1-oxa-2-azaspiro[4.5]dec-2-en-3-yl)methyl)-4-(4-(3-chloro-5-fluorophenyl)-1H-1,2,3-triazol-1-yl)-2-(hydroxymethyl)-5-methoxytetrahydro-2H-pyran-3-ol]	4.2 µM	0.68 µM	–
CO[C@@H]1[C@@H](n2cc(-c3cc(F)c(F)c(F)c3)nn2)[C@@H](O)[C@@H](CO)O[C@@H]1CC1=NO[C@]2(CC[C@H](C#N)CC2)C1 [Example 1.40, (5r,8R)-3-(((2R,3R,4S,5R,6R)-5-hydroxy-6-(hydroxymethyl)-3-methoxy-4-(4-(3,4,5-trifluorophenyl)-1H-1,2,3-triazol-1-yl)tetrahydro-2H-pyran-2-yl)methyl)-1-oxa-2-azaspiro[4.5]dec-2-ene-8-carbonitrile]	2 µM	0.089 µM	–
CO[C@@H]1[C@@H](n2cc(-c3ccc(Cl)c(F)c3F)nn2)[C@@H](O)[C@@H](CO)O[C@@H]1CC1=NO[C@]2(CC[C@@H](C(C)(C)O)CC2)C1 [Example 1.65, (2R,3R,4S,5R,6R)-4-(4-(4-chloro-2,3-difluorophenyl)-1H-1,2,3-triazol-1-yl)-2-(hydroxymethyl)-6-(((5s,8S)-8-(2-hydroxypropan-2-yl)-1-oxa-2-azaspiro[4.5]dec-2-en-3-yl)methyl)-5-methoxytetrahydro-2H-pyran-3-ol]	2.7 µM	0.12 µM	–

Further lines, results first:

IC50 (human Gal-1 (hGal-1); [1])	IC50 (human Gal-3 (hGal-3))	IC50 (human Gal-1 (hGal-1); read-out: Gal-1 IC50; Activities on hGal-1; binding to ASF-coated plates, 3 hours at 4° C.; mean values)	SMILES
0.32 µM	0.02 µM	–	CCOC(=O)N[C@H]1CC[C@]2(CC1)CC(C[C@H]1O[C@H](CO)[C@H](O)[C@H](n3cc(-c4ccc(F)c(F)c4F)nn3)[C@H]1OC)=NO2 [Example 2.10, ethyl ((5r,8R)-3-(((2R,3R,4S,5R,6R)-5-hydroxy-6-(hydroxymethyl)-3-methoxy-4-(4-(2,3,4-trifluorophenyl)-1H-1,2,3-triazol-1-yl)tetrahydro-2H-pyran-2-yl)methyl)-1-oxa-2-azaspiro[4.5]dec-2-en-8-yl)carbamate]
2.2 µM	0.25 µM	–	CO[C@@H]1[C@@H](n2cc(-c3cc(F)c(F)c(F)c3)nn2)[C@@H](O)[C@@H](CO)O[C@@H]1CC1=NOC2(CCC(O)CC2)C1 (stereo partly drawn) [Example 2.01, 3-(((2R,3R,4S,5R,6R)-5-hydroxy-6-(hydroxymethyl)-3-methoxy-4-(4-(3,4,5-trifluorophenyl)-1H-1,2,3-triazol-1-yl)tetrahydro-2H-pyran-2-yl)methyl)-1-oxa-2-azaspiro[4.5]dec-2-en-8-ol]
1.7 µM	0.14 µM	–	CO[C@@H]1[C@@H](n2cc(-c3cc(F)c(F)c(F)c3)nn2)[C@@H](O)[C@@H](CO)O[C@@H]1CC1=NOC2(CCN(C(=O)NC(C)(C)C)CC2)C1 [Example 2.28, N-(tert-butyl)-3-(((2R,3R,4S,5R,6R)-5-hydroxy-6-(hydroxymethyl)-3-methoxy-4-(4-(3,4,5-trifluorophenyl)-1H-1,2,3-triazol-1-yl)tetrahydro-2H-pyran-2-yl)methyl)-1-oxa-2,8-diazaspiro[4.5]dec-2-ene-8-carboxamide]
3.5 µM	0.09 µM	–	O=C(O)CO[C@@H]1[C@@H](n2cc(-c3cc(F)c(F)c(F)c3)nn2)[C@@H](O)[C@@H](CO)O[C@@H]1CC1=NOC2(CCCCC2)C1 [Example 2.26, 2-(((2R,3R,4S,5R,6R)-2-((1-oxa-2-azaspiro[4.5]dec-2-en-3-yl)methyl)-5-hydroxy-6-(hydroxymethyl)-4-(4-(3,4,5-trifluorophenyl)-1H-1,2,3-triazol-1-yl)tetrahydro-2H-pyran-3-yl)oxy)acetic acid]
